Measured values taken from the supplement of paper PMC7244745.
Where a name gives a salt, the structure may show the parent alone. ± gives the uncertainty stated by the source.

Key:
[1] = system: Klebsiella pneumoniae ATCC 13882; experiment: rate of pH (A557-A630) increase, Gompertz fit (10^-4 s-1); higher = faster ureolysis; extreme values may be limits of the assay
Description: (§1)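 Klebsiella pneumoniae ATCC 13882 (start OD600 0.05) grown in M9U medium with 40 mM urea and phenol red plus inhibitor, in triplicate in 96-well plates. A557 and OD630 were read every 15 min for 24 h. Ureolysis was followed as the pH-related A557-A630: onset time, Gompertz-fit rate and final value. Growth was followed as OD630.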

[2] = system: Klebsiella pneumoniae ATCC 13882; experiment: final OD630 (growth) after 24 h; higher = more bacterial growth; extreme values may be limits of the assay
Description: as §1

[3] = system: Klebsiella pneumoniae ATCC 13882; experiment: onset of ureolytic pH increase; higher = more delayed ureolysis (inhibition)
Description: as §1

[4] = system: Klebsiella pneumoniae ATCC 13882; experiment: final pH-related absorbance (A557-A630) after 24 h (absorbance units); higher = more ureolysis; extreme values may be limits of the assay
Description: as §1

SMILES	rate of pH ([1]; 0.1 mM)	rate of pH ([1]; 1 mM)	rate of pH ([1]; 10 mM)	final OD630 ([2]; 0.1 mM)	final OD630 ([2]; 1 mM)	final OD630 ([2]; 10 mM)	onset of ureolytic pH increase ([3]; 0.1 mM) [min]	onset of ureolytic pH increase ([3]; 1 mM) [min]	onset of ureolytic pH increase ([3]; 10 mM) [min]	final pH-related absorbance ([4]; 0.1 mM)	final pH-related absorbance ([4]; 1 mM)	final pH-related absorbance ([4]; 10 mM)	other results
CCOC(=O)[C@@H](N)CS [L-cysteine ethyl ester hydrochloride]	2.06 ± 0.11	0	0	0.547 ± 0.018	0.299 ± 0.003	0.422 ± 0.045	441.6 ± 4	> 900	> 900	0.394 ± 0.031	0	0	
COC(=O)[C@@H](N)CS [L-cysteine methyl ester hydrochloride]	1.55 ± 0.16	0		0.457 ± 0.0075	0.261 ± 0.0026		595.25 ± 0.35	> 900		0.566 ± 0.001	0		
N[C@@H](CS)C(=O)O [L-cysteine]	1.656 ± 0.0059	0	0	0.431 ± 0.0025	0.334 ± 0.008	0.289 ± 0.01	952 ± 1.8	> 1500	> 1500	0.225 ± 0.0018	0	0	
NC(=O)CC[C@H](N)C(=O)O [L-glutamine]													rate of pH ([1]; 0.009 mM): 1.675 ± 0.015; rate of pH ([1]; 0.091 mM): 1.74 ± 0.052; rate of pH ([1]; 9.06 mM): 1.78 ± 0.018; final OD630 ([2]; 0.009 mM): 0.515 ± 0.01; final OD630 ([2]; 0.091 mM): 0.549 ± 0.014; final OD630 ([2]; 9.06 mM): 0.531 ± 0.0093; onset of ureolytic pH increase ([3]; 0.009 mM): 566.8 ± 3.4 min; onset of ureolytic pH increase ([3]; 0.091 mM): 555.8 ± 1.8 min; onset of ureolytic pH increase ([3]; 9.06 mM): 562.2 ± 3.9 min; final pH-related absorbance ([4]; 0.009 mM): 0.223 ± 0.0054; final pH-related absorbance ([4]; 0.091 mM): 0.219 ± 0.005; final pH-related absorbance ([4]; 9.06 mM): 0.222 ± 0.0029
N[C@@H](Cc1c[nH]cn1)C(=O)O [L-histidine]	3.03 ± 0.049	3.09 ± 0.27	1.12 ± 0.078	0.709 ± 0.008	0.706 ± 0.007	0.715 ± 0.026	368.4 ± 3.6	411.2 ± 1.3	588 ± 5.9	0.485 ± 0.022	0.506 ± 0.007	0.63 ± 0.016	
O.O.O.O.O.O.O.O=S(=O)([O-])[O-].[Mg+2] [Magnesium sulfate]	2.16 ± 0.017	2.15 ± 0.021	2.01 ± 0.046	0.553 ± 0.034	0.508 ± 0.0073	0.521 ± 0.0037	568.1 ± 4.6	571 ± 7.1	555 ± 12	0.151 ± 0.0021	0.153 ± 0.0018	0.177 ± 0.0039	
CNC(N)=O [Methylurea]	1.54 ± 0.021	1.531 ± 0.014	1.551 ± 0.0041	0.418 ± 0.0043	0.427 ± 0.0012	0.419 ± 0.0011	615.2 ± 1.6	615 ± 2.4	622.5 ± 0.96	0.17 ± 0.0022	0.174 ± 0.001	0.173 ± 0.001	
NC(=O)CN(CC(=O)O)CC(=O)O [N-(2-acetamido)iminodiacetic acid]													rate of pH ([1]; 0.0035 mM): 1.791 ± 0.016; rate of pH ([1]; 0.0351 mM): 1.805 ± 0.018; rate of pH ([1]; 0.351 mM): 1.77 ± 0.053; final OD630 ([2]; 0.0035 mM): 0.548 ± 0.048; final OD630 ([2]; 0.0351 mM): 0.519 ± 0.0043; final OD630 ([2]; 0.351 mM): 0.511 ± 0.0089; onset of ureolytic pH increase ([3]; 0.0035 mM): 570 ± 8.3 min; onset of ureolytic pH increase ([3]; 0.0351 mM): 562.4 ± 3 min; onset of ureolytic pH increase ([3]; 0.351 mM): 581.8 ± 1.1 min; final pH-related absorbance ([4]; 0.0035 mM): 0.217 ± 0.0022; final pH-related absorbance ([4]; 0.0351 mM): 0.218 ± 0.0017; final pH-related absorbance ([4]; 0.351 mM): 0.219 ± 0.0049
O=C(O)CNc1ccc(O)cc1 [N-(4-Hydroxyphenyl)glycine]													rate of pH ([1]; 0.001 mM): 2.079 ± 0.0047; rate of pH ([1]; 0.011 mM): 2.81 ± 0.3; rate of pH ([1]; 0.112 mM): 0.632 ± 0.057; final OD630 ([2]; 0.001 mM): 0.438 ± 0.009; final OD630 ([2]; 0.011 mM): 0.357 ± 0.005; final OD630 ([2]; 0.112 mM): 0; onset of ureolytic pH increase ([3]; 0.001 mM): 571.6 ± 1.1 min; onset of ureolytic pH increase ([3]; 0.011 mM): 809 ± 15 min; onset of ureolytic pH increase ([3]; 0.112 mM): 0 min; final pH-related absorbance ([4]; 0.001 mM): 0.183 ± 0.003; final pH-related absorbance ([4]; 0.011 mM): 0.107 ± 0.013; final pH-related absorbance ([4]; 0.112 mM): 0.331 ± 0.042
O=C1C=CC(=O)N1c1ccccc1 [N-phenylmaleimide]													rate of pH ([1]; 0.039 mM): 1.67 ± 0.056; rate of pH ([1]; 0.39 mM): 0; rate of pH ([1]; 3.9 mM): 0; final OD630 ([2]; 0.039 mM): 0.448 ± 0.07; final OD630 ([2]; 0.39 mM): 0; final OD630 ([2]; 3.9 mM): 0; onset of ureolytic pH increase ([3]; 0.039 mM): 781 ± 9.3 min; onset of ureolytic pH increase ([3]; 0.39 mM): > 1500 min; onset of ureolytic pH increase ([3]; 3.9 mM): > 1500 min; final pH-related absorbance ([4]; 0.039 mM): 0.136 ± 0.0029; final pH-related absorbance ([4]; 0.39 mM): 0; final pH-related absorbance ([4]; 3.9 mM): 0
CNC(=O)NC [N.N'-Dimethylurea]	1.69 ± 0.054	1.77 ± 0.022	0.0814 ± 0.0017	0.502 ± 0.0051	0.411 ± 0.018	0	592.2 ± 2.8	784 ± 29	0	0.213 ± 0.004	0.197 ± 0.095	0.456 ± 0.0086	
O=C(O)C(=O)O [Oxalic acid]	1.52 ± 0.024	1.62 ± 0.013	0	0.435 ± 0.0093	0.441 ± 0.0005	0.089 ± 0.0056	678 ± 0.9	677.1 ± 1.1	> 900	0.334 ± 0.008	0.291 ± 0.0011	0	
NP(N)(=O)Oc1ccccc1 [Phenyl phosphorodiamidate]													rate of pH ([1]; 0.007 mM): 0; rate of pH ([1]; 0.07 mM): 0; rate of pH ([1]; 0.7 mM): 0; final OD630 ([2]; 0.007 mM): 0.421 ± 0.0059; final OD630 ([2]; 0.07 mM): 0.4185 ± 0.004; final OD630 ([2]; 0.7 mM): 0.384 ± 0.01; onset of ureolytic pH increase ([3]; 0.007 mM): > 900 min; onset of ureolytic pH increase ([3]; 0.07 mM): > 900 min; onset of ureolytic pH increase ([3]; 0.7 mM): > 900 min; final pH-related absorbance ([4]; 0.007 mM): 0; final pH-related absorbance ([4]; 0.07 mM): 0; final pH-related absorbance ([4]; 0.7 mM): 0
O=S(O)S(=O)(=O)O [Potassium disulfite]	1.766 ± 0.005	0.8111 ± 0.002	0	0.462 ± 0.012	0.531 ± 0.001	0.024 ± 0.002	427 ± 1.5	519 ± 12	> 900	0.358 ± 0.002	0.356 ± 0.014	0	
[K+].[O]=[Mn](=[O])(=[O])[O-] [Potassium permanganate]	1.65 ± 0.032	0		0.444 ± 0.0025	0		681.1 ± 6.4	> 1500		0.062 ± 0.0044	0		
Oc1ccccc1O [Pyrocatechol]	1.789 ± 0.015	1.74 ± 0.016		0.425 ± 0.0055	0.462 ± 0.0061	0	663.9 ± 4.2	874 ± 21		0.397 ± 0.0008	0.369 ± 0.011		
